Common to all, as to assay: NCI tumour cell line growth inhibition, 48 h
Experiment [1] deals with A549 NSCLC.
The test system of experiment [2] is DU-145 prostate.
In experiment [3] the test system is HCC-2998 colon.
In experiment [4] the test system is IGROV1 ovarian.
Experiment [5] concerns KM12 colon.
The subject of experiment [6] is M14 melanoma.
Experiment [7] concerns NCI-H23 lung.
The subject of experiment [8] is UO-31 renal.
Experiment [9] concerns COLO 205 colon.
In experiment [10] the test system is HOP-92 NSCLC.

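Results reflect a 48-hour exposure of cells in 96-well plates to compound at five concentrations. GI50 = concentration required for 50% inhibition of growth. The concentration for full growth arrest is given as TGI.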 Where a SMILES comes first, the peptide text is derived from it. [ ]: non-standard residue; d: D form. The star is where a group is joined. Phe(4-NO2) = N[CH](Cc1ccc([N+](=O)[O-])cc1)C(=O)O; Boc = CC(C)(C)OC(=O)*

For `CC(=O)OCC1OC(SC2=NC(=O)CS2)C(OC(C)=O)C(OC(C)=O)C1OC(C)=O` (stereo unspecified), the TGI in [1], in experiment [2], in experiment [3], in [4], in experiment [5] and in experiment [6] was greater than 100 µM in each case. The TGI in experiment [7] and in experiment [8] was greater than 100 µM throughout.

For the compound `Cc1cc(S(=O)(=O)Nc2nc3cscc3c(=O)n2N)c(S)cc1Cl`, the TGI in experiment [1], in [9], in [2], in [3], in experiment [4] and in experiment [5] was greater than 100 µM throughout. Further, the TGI in [6] and in experiment [7] was greater than 100 µM each time.

As for `Cc1cn(C2CC(COCc3ccccc3)N(CCO[Si](C)(C)C(C)(C)C)O2)c(=O)[nH]c1=O` (stereo unspecified), the TGI in experiment [1] was found to be 28.4 µM; in experiment [9] it was 28.4 µM; in experiment [2], 31 µM; in experiment [10], 25.7 µM; in [5], 31.1 µM; in experiment [6] it was 29.5 µM. Further, the TGI worked out at 30.7 µM in [7] and 28.2 µM in [8].

For the compound `Cc1cc2nc3ccccc3n2c2ccccc12`, the TGI in experiment [1], in experiment [9], in experiment [2], in experiment [3], in experiment [4] and in experiment [5] was greater than 10 µM in each case. For the same compound, the TGI in experiment [6] and in experiment [7] was greater than 10 µM in each case.

Regarding `C=CC(C)(C)/C=C/c1ccc(O)cc1`, the TGI was greater than 100 µM in experiment [1]; greater than 100 µM in experiment [9]; greater than 100 µM in [2]; 79.9 µM in [3]; greater than 100 µM in [10]; greater than 100 µM in [4]. Besides, the TGI in [5], in experiment [6] and in [7] was greater than 100 µM each time.

On to `CCOC(=O)CCC(NC(=O)C(Cc1ccc([N+](=O)[O-])cc1)NC(=O)OC(C)(C)C)C(=O)NC(CCC(=O)OCC)C(=O)OCC` (stereo unspecified) (Boc-[Phe(4-NO2)]-Glu(OEt)-Glu(OEt)-OEt; configuration not given here), for which the TGI is greater than 100 µM in [1]; 57.1 µM in experiment [9]; 30.9 µM in experiment [3]; 34.7 µM in [10]; 38.3 µM in [4]; 28.1 µM in experiment [5]. Further, the TGI in experiment [6] is 35.9 µM; in experiment [7], 31.8 µM; in experiment [8], greater than 100 µM.

On to `C/C(=N\Nc1nc2ccccc2[nH]1)c1ncccn1`, for which the TGI is greater than 93 µM in experiment [1]; greater than 49.6 µM in experiment [9]; greater than 100 µM in [2]; greater than 100 µM in [3]; 1.93 µM in experiment [10]; 9.41 µM in experiment [4]. For the same compound, the values for the TGI in experiment [5], in experiment [6] and in experiment [7] were greater than 46.9 µM, 0.322 µM and 8.58 µM, respectively.

On to `CC(c1ccccc1)n1cncc1C(=O)NN1CCN(C)CC1` (stereo unspecified), for which the TGI in experiment [1], in experiment [9], in experiment [2], in experiment [4], in experiment [5] and in experiment [6] was greater than 10 µM throughout. Also, the TGI in [7] was greater than 10 µM.

With `CCOC(=O)CCc1cn2cc(Br)nc(OC)c2n1`, the TGI in experiment [1], in experiment [9], in experiment [2], in experiment [3], in experiment [4] and in experiment [5] was greater than 100 µM each time. The TGI in experiment [6] was greater than 100 µM; in experiment [7] it was greater than 100 µM; in experiment [8], 58.5 µM.

In the case of `N/N=C(/N)SCCCCCCCCCCS/C(N)=N/N`, the TGI in [1] was 50.3 µM; in experiment [9], 27.7 µM; in [2], greater than 100 µM; in experiment [3], 59.6 µM; in [4] it was 69.9 µM; in experiment [5] it was 67.3 µM. The TGI in experiment [6] was greater than 100 µM; in [7] it was greater than 100 µM; in [8], 78.9 µM.

On to `Cc1ccc(N=C/C=C(\Nc2ccc(C)cc2)c2ccc3ccccc3c2)cc1`, for which the TGI in experiment [1] worked out at 13.2 µM; in experiment [9] it was 2.38 µM; in [2], 10.7 µM; in experiment [10], 27.6 µM; in experiment [4] it was 15.1 µM; in experiment [5], 4.43 µM. For the same compound, the TGI came out at 8.69 µM in [6], 3.9 µM in experiment [7] and 13.1 µM in experiment [8].

On to `Cc1ccc(N2C(=O)C3CSCN3C2=O)cc1` (stereo unspecified), for which the TGI in [1], in [9], in experiment [3], in [10], in [4] and in experiment [5] was greater than 100 µM each time. For the same compound, the TGI in experiment [7] and in experiment [8] was greater than 100 µM in each case.

`O=c1c2ccccc2nc(N/N=C/c2ccc([N+](=O)[O-])cc2)n1-c1ccccc1`: the TGI in [1], in experiment [9], in experiment [2], in [4], in [5] and in [6] was greater than 100 µM in each case. Moreover, the TGI in experiment [7] and in experiment [8] was greater than 100 µM in each case.

Take `C/C(=C\Cc1ccc(F)cc1)CCCCCC/C(C)=C/Cc1ccc(F)cc1`: the TGI in experiment [1] amounted to 31.7 µM; in experiment [9], 37.6 µM; in experiment [2] it was 27.8 µM; in [10], 23.5 µM; in experiment [4] it was 26.7 µM; in [5], 5.61 µM. Besides, the results for the TGI in [6], in experiment [7] and in [8] were 45.6 µM, 24 µM and 23.1 µM, respectively.

With `O=C1c2ccccc2C2(c3ccc(F)cc3)NCCN12` (stereo unspecified), the TGI in experiment [1], in experiment [9], in experiment [2], in experiment [3], in [4] and in experiment [5] was greater than 100 µM throughout. Moreover, the TGI in experiment [6], in experiment [7] and in experiment [8] was greater than 100 µM each time.

As to `COc1cc2c3c(n(C)c(=O)c2cc1OC)-c1cc2c(cc1/C3=C\CCCCCBr)OCO2`, the TGI in experiment [1] is greater than 100 µM; in experiment [9] it was greater than 100 µM; in experiment [2], greater than 100 µM; in [10], 38.7 µM; in [4] it was 0.605 µM; in experiment [5], greater than 100 µM. The TGI in [6] is greater than 100 µM; in experiment [7], greater than 100 µM; in experiment [8], 47.8 µM. Besides, the GI50 in [2] was 5.54 µM.

Take `O=S(=O)(/N=S(/Nc1ccccc1)C(F)(F)Cl)c1ccccc1` (stereo unspecified): the TGI in experiment [1], in experiment [9], in experiment [2], in experiment [10], in experiment [4] and in experiment [5] was greater than 100 µM in each case. Also, the TGI in experiment [6], in [7] and in experiment [8] was greater than 100 µM throughout.

Regarding `O=Nc1c(-c2c(O)[nH]c3ccc(I)cc23)[nH]c2ccccc12`, the TGI is greater than 30.4 µM in experiment [1]; greater than 100 µM in experiment [9]; greater than 24.6 µM in [2]; greater than 27.7 µM in experiment [10]; 8.51 µM in experiment [4]; greater than 100 µM in [6]. In addition, the TGI in experiment [7] is greater than 100 µM; in [8], 5.43 µM.

For the compound `Cc1cc2c(=O)c3ccc(Cl)cc3[nH]c2c(C(N)=O)c1C`, the TGI in experiment [1], in experiment [9], in experiment [3], in [10], in experiment [4] and in [5] was greater than 100 µM in each case. Also, the TGI in experiment [6], in [7] and in experiment [8] was greater than 100 µM each time.

Consider `CCC1=C(C[C@H]2NCCc3cc(OC)c(OC)cc32)C[C@H]2c3cc(OC)c(OC)cc3CCN2C1`, for which the TGI in experiment [3] is 0.0964 µM; in experiment [10], 0.095 µM; in experiment [4] it was 0.444 µM; in experiment [6] it was 0.069 µM; in experiment [7] it was 0.0532 µM; in experiment [8], 0.923 µM.

For `O=C1CCCCC/C1=C\c1cccc(F)c1`, the TGI in experiment [1], in experiment [9], in experiment [2], in experiment [3], in [4] and in experiment [5] was greater than 100 µM each time. Further, the TGI in experiment [6] and in [8] was greater than 100 µM throughout.

For `Cn1c2ccccc2n2c3ncccc3c(=O)cc12`, the TGI in experiment [1], in experiment [9], in experiment [2], in [10], in [4] and in experiment [5] was greater than 100 µM throughout. The TGI in [6], in [7] and in experiment [8] was greater than 100 µM each time.

Consider `COc1cccc(C(C#N)NNC(=O)c2c(Cl)c(Cl)c(Cl)c(Cl)c2-c2nc3ccc(C(=O)c4ccccc4)cc3[nH]2)c1O` (stereo unspecified), for which the TGI in experiment [1], in experiment [9], in [2], in experiment [10], in [4] and in [5] was greater than 100 µM in each case. Further, the values for the TGI in experiment [6], in experiment [7] and in experiment [8] were 25.1 µM, greater than 100 µM and greater than 100 µM, respectively.

As to `Oc1c(Cl)cc2cc1-c1cc(cc(Cl)c1O)CCc1c(cc(Cl)c(O)c1Cl)-c1cc(Cl)c(c(Cl)c1O)/C=C\2`, the TGI in experiment [1] came to 23.9 µM; in experiment [9], 16.4 µM; in [2], 16.1 µM; in experiment [3], 13.9 µM; in [10] it was 34.7 µM; in experiment [4], 18.3 µM. Also, the TGI came to 15.1 µM in experiment [5], 15.6 µM in experiment [6] and 33.6 µM in experiment [7].

Regarding `O=C1c2ccncc2C(=O)c2c(O)ccc(O)c21`, the TGI turned out to be 18.1 µM in [1]; 13.1 µM in experiment [9]; 16.3 µM in experiment [3]; 32.4 µM in experiment [10]; 25.9 µM in experiment [4]; 32.8 µM in experiment [5]. Moreover, the TGI came to 19.5 µM in [6] and 29.7 µM in [8].

Take `CC(C)(C)OC(=O)C(C#N)C(=O)c1ccc(C(=O)O)[nH]1` (stereo unspecified): the TGI in experiment [1] is greater than 100 µM; in [9] it was greater than 100 µM; in experiment [2], greater than 100 µM; in experiment [10], 73.6 µM; in [5], greater than 100 µM; in experiment [6], greater than 100 µM. Moreover, the TGI in experiment [7] and in experiment [8] was greater than 100 µM in each case.

On to `COc1cc2nc(N3CCC[C@H](NC4=CC(=O)c5ccccc5C4=O)C3)nc(N)c2cc1OC`, for which the GI50 in [1] was 2.23 µM; in [9] it was 1.91 µM; in experiment [2] it was 1.96 µM; in [3] it was 1.97 µM; in experiment [4] it was 2.07 µM; in experiment [5], 1.77 µM. For the same compound, the GI50 in experiment [7] is 1.99 µM; in experiment [8], 1.49 µM. Besides, the TGI in experiment [1] came out at 4 µM; in experiment [9], 3.47 µM; in [2], 3.58 µM; in [3] it was 3.5 µM; in [4] it was 4.27 µM; in experiment [5] it was 3.22 µM. Also, the figures for the TGI in experiment [7] and in experiment [8] were 4.13 µM and 3.16 µM, respectively.

For the compound `c1ccc2c[n+](CCCC[n+]3ccc4ccccc4c3)ccc2c1`, the TGI in [1], in experiment [9], in [2], in experiment [3], in experiment [4] and in experiment [5] was greater than 100 µM each time. For the same compound, the TGI in experiment [6] and in experiment [7] was greater than 100 µM each time.

On to `COC(=O)C(Cc1c[nH]c2ccccc12)NC(=O)C(Cc1c[nH]c2ccccc12)NC(=O)C(Cc1c[nH]c2ccccc12)NC(=O)C(Cc1c[nH]c2ccccc12)NC(=O)C(Cc1c[nH]c2ccccc12)NC(=O)C(Cc1c[nH]c2ccccc12)NC(=O)C(Cc1c[nH]c2ccccc12)NC(=O)OC(C)(C)C` (stereo unspecified) (Boc-WWWWWWW-OMe; configuration not given here), for which the TGI in experiment [1] was greater than 100 µM; in [2], greater than 100 µM; in [3], greater than 100 µM; in experiment [4], greater than 100 µM; in experiment [6], 58.9 µM; in experiment [7] it was greater than 100 µM. Moreover, the TGI in [8] is greater than 100 µM.

Source of the values: PubChem BioAssay (NCI).
